The target in the assay is T1, mTOR (Homo sapiens, UniProt P42345).
T1 construct: FLAG; made in house
Put plainly: In Vitro mTOR Kinase Assay (Echo), Test (a)(ii). Type of assay: biochemical. The settings on record: table of enzyme assay Test (a)(ii); read-out: Test (a)(ii) IC50. The procedure, abridged:
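AlphaScreen read-out: biotinylated substrate phosphorylation was detected with anti-p70 S6K (T389) 1A5 antibody, Protein A acceptor and streptavidin donor beads after overnight dark incubation at room temperature. Enzyme was FLAG-mTOR 1362-2549 from stable HEK293 cells.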

T1 sequence (P42345 1362-2549): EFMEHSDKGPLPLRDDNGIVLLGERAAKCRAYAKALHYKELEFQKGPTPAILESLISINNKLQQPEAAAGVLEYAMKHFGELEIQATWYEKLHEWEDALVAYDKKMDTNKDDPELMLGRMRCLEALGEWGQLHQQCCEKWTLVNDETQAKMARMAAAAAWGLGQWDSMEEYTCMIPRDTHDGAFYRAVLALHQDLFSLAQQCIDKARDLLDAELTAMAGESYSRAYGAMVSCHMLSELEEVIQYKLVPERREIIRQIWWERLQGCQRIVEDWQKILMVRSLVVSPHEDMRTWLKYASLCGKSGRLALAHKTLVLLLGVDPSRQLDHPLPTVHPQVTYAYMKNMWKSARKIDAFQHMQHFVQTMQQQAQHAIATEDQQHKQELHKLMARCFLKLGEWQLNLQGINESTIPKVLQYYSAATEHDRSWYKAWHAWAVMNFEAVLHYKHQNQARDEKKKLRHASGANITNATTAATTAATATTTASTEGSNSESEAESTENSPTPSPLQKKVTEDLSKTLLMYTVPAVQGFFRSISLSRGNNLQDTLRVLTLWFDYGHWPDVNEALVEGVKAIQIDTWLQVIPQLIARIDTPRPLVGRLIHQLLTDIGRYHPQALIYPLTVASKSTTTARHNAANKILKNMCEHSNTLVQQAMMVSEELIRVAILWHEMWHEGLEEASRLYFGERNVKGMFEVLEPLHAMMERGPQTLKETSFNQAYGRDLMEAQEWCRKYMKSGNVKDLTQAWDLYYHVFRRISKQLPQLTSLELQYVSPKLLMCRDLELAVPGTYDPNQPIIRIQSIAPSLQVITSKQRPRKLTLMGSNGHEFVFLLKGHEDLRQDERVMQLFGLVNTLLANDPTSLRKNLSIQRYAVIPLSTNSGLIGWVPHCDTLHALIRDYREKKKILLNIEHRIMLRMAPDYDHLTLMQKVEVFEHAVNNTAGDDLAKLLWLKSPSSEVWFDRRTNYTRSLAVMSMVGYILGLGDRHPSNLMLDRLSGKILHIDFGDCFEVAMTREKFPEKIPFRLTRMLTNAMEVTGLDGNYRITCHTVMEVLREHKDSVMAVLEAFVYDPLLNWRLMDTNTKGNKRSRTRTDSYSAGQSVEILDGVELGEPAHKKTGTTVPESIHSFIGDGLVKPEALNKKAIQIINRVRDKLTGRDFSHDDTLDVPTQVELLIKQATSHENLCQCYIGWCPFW

Turning to `CCNC(=O)Nc1ccc(-c2nc(N3CCOCC3)cc(C3(S(=O)(=O)CCO)CC3)n2)cc1` [Example 47b, 3-ethyl-1-[4-[4-[1-(2-hydroxyethylsulfonyl)cyclopropyl]-6-morpholin-4-ylpyrimidin-2-yl]phenyl]urea], the IC50 worked out at 14.9 nM.

`CNC(=O)Nc1ccc(-c2nc(N3CCOC[C@@H]3C)cc(C3(S(=O)(=O)c4ccc(C(=O)N(C)C)cn4)CC3)n2)cc1` [Example 49, N,N-Dimethyl-6-[1-[2-[4-(methylcarbamoylamino)phenyl]-6-[(3S)-3-methylmorpholin-4-yl]pyrimidin-4-yl]cyclopropyl]sulfonylpyridine-3-carboxamide]: the IC50 was determined as 1.87 nM. In the case of `C[C@H]1COCCN1c1cc(C2(S(=O)(=O)c3ccc(C(=O)N(C)C)cn3)CC2)nc(-c2ccc(NC(=O)NC3CC3)cc2)n1` [Example 49a] it was 2.67 nM. In the case of `CNC(=O)Nc1ccc(-c2nc(N3CCOC[C@@H]3C)cc(C3(S(=O)(=O)c4cccnc4C(=O)N(C)C)CC3)n2)cc1` [Example 50, N,N-Dimethyl-3-[1-[2-[4-(methylcarbamoylamino)phenyl]-6-[(3S)-3-methylmorpholin-4-yl]pyrimidin-4-yl]cyclopropyl]sulfonylpyridine-2-carboxamide] it was 10.4 nM; in that of `C[C@H]1COCCN1c1cc(C2(S(=O)(=O)c3cccnc3C(=O)N(C)C)CC2)nc(-c2ccc(NC(=O)NC3CC3)cc2)n1` [Example 50a], 7.94 nM. In the case of `CNC(=O)Nc1ccc(-c2nc(N3CCOC[C@@H]3C)cc(C3(S(=O)(=O)CCOC)CC3)n2)cc1` [Example 51, 1-[4-[4-[1-(2-Methoxyethylsulfonyl)cyclopropyl]-6-[(3S)-3-methylmorpholin-4-yl]pyrimidin-2-yl]phenyl]-3-methylurea] it was 3.32 nM.

For the molecule `C[C@H]1COCCN1c1cc(C2(S(C)(=O)=O)CC2)nc(-c2ccc(NC(=O)NC3CC3)c(F)c2)n1` [Example 52, 3-cyclopropyl-1-[2-fluoro-4-[4-[(3S)-3-methylmorpholin-4-yl]-6-(1-methylsulfonylcyclopropyl)pyrimidin-2-yl]phenyl]urea], the IC50 amounted to 18.4 nM. To `CNC(=O)Nc1ccc(-c2nc(N3CCOC[C@@H]3C)cc(C3(S(C)(=O)=O)CC3)n2)cc1F` [Example 52a, 1-[2-fluoro-4-[4-[(3S)-3-methylmorpholin-4-yl]-6-(1-methylsulfonylcyclopropyl)pyrimidin-2-yl]phenyl]-3-methylurea] belongs 10.3 nM. In the case of `CCNC(=O)Nc1ccc(-c2nc(N3CCOC[C@@H]3C)cc(C3(S(C)(=O)=O)CC3)n2)cc1F` [Example 52b, 3-ethyl-1-[2-fluoro-4-[4-[(3S)-3-methylmorpholin-4-yl]-6-(1-methylsulfonylcyclopropyl)pyrimidin-2-yl]phenyl]urea] it was 30.7 nM; in that of `C[C@H]1COCCN1c1cc(C2(S(C)(=O)=O)CC2)nc(-c2ccc(NC(=O)NCCO)c(F)c2)n1` [Example 52c, 1-[2-fluoro-4-[4-[(3S)-3-methylmorpholin-4-yl]-6-(1-methylsulfonylcyclopropyl)pyrimidin-2-yl]phenyl]-3-(2-hydroxyethyl)urea], 29.6 nM; in that of `CNC(=O)Nc1ccc(-c2nc(N3CCOC[C@@H]3C)cc(C3(S(=O)(=O)c4cccc(F)c4)CC3)n2)cc1` [Example 53, 1-[4-[4-[1-(3-Fluorophenyl)sulfonylcyclopropyl]-6-[(3S)-3-methylmorpholin-4-yl]pyrimidin-2-yl]phenyl]-3-methylurea], 2.18 nM. For the molecule `C[C@H]1COCCN1c1cc(C2(S(=O)(=O)c3cccc(F)c3)CC2)nc(-c2ccc(NC(=O)NC3CC3)cc2)n1` [Example 53a, 3-cyclopropyl-1-[4-[4-[1-(3-fluorophenyl)sulfonylcyclopro-pyl]-6-[(3S)-3-methylmorpholin-4-yl]pyrimidin-2-yl]phenyl]urea], the IC50 was determined as 2.29 nM.

Consider `C[C@H]1COCCN1c1cc(C2(S(=O)(=O)c3cccc(F)c3)CC2)nc(-c2ccc(NC(=O)NCCO)cc2)n1` [Example 53b, 1-[4-[4-[1-(3-fluorophenyl)sulfonylcyclopro-pyl]-6-[(3S)-3-methylmorpholin-4-yl]pyrimidin-2-yl]phenyl]-3-(2-hydroxyethyl)urea], for which the IC50 worked out at 0.669 nM. For `C[C@H]1COCCN1c1cc(C2(S(=O)(=O)c3cccc(F)c3)CC2)nc(-c2ccc(NC(=O)NCCF)cc2)n1` [Example 53c, 3-(2-fluoroethyl)-1-[4-[4-[1-(3-fluorophenyl)sulfonylcyclopro-pyl]-6-[(3S)-3-methylmorpholin-4-yl]pyrimidin-2-yl]phenyl]urea], the IC50 was found to be 0.688 nM. Consider `C[C@H]1COCCN1c1cc(C2(S(=O)(=O)c3cccc(F)c3)CC2)nc(-c2ccc(NC(=O)NCC(F)F)cc2)n1` [Example 53d, 3-(2,2-difluoroethyl)-1-[4-[4-[1-(3-fluorophenyl)sulfonylcyclopro-pyl]-6-[(3S)-3-methylmorpholin-4-yl]pyrimidin-2-yl]phenyl]urea], for which the IC50 amounted to 3.1 nM. With `CCNC(=O)Nc1ccc(-c2nc(N3CCOC[C@@H]3C)cc(C3(S(=O)(=O)c4cccc(F)c4)CC3)n2)cc1` [Example 53e, 1-ethyl-3-[4-[4-[1-(3-fluorophenyl)sulfonylcyclopro-pyl]-6-[(3S)-3-methylmorpholin-4-yl]pyrimidin-2-yl]phenyl]urea], the IC50 stood at 1.98 nM. In the case of `C[C@H]1COCCN1c1cc(C2(S(=O)(=O)c3cccc(F)c3)CC2)nc(-c2ccc(NC(=O)Nc3cnn(C)c3)cc2)n1` [Example 53f, 1-[4-[4-[1-(3-fluorophenyl)sulfonylcyclopro-pyl]-6-[(3S)-3-methylmorpholin-4-yl]pyrimidin-2-yl]phenyl]-3-(1-methylpyrazol-4-yl)urea] it was 6.34 nM. To `CNC(=O)Nc1ccc(-c2nc(N3CCOC[C@@H]3C)cc(C3(S(=O)(=O)c4ccccc4C)CC3)n2)cc1` [Example 54, 3-Methyl-1-[4-[4-[(3S)-3-methylmorpholin-4-yl]-6-[1-(2-methylphenyl)sulfonylcyclopropyl]pyrimidin-2-yl]phenyl]urea] belongs 2.17 nM. In the case of `Cc1ccccc1S(=O)(=O)C1(c2cc(N3CCOC[C@@H]3C)nc(-c3ccc(NC(=O)NC4CC4)cc3)n2)CC1` [Example 54a, 3-cyclopropyl-1-[4-[4-[(3S)-3-methylmorpholin-4-yl]-6-[1-(2-methylphenyl)sulfonylcyclo-propyl]pyrimidin-2-yl]phenyl]urea] it was 9.18 nM. In the case of `Cc1ccccc1S(=O)(=O)C1(c2cc(N3CCOC[C@@H]3C)nc(-c3ccc(NC(=O)NCCO)cc3)n2)CC1` [Example 54b, 3-(2-hydroxyethyl)-1-[4-[4-[(3S)-3-methylmorpholin-4-yl]-6-[1-(2-methylphenyl)sulfonylcyclo-propyl]pyrimidin-2-yl]phenyl]urea], the IC50 came to 3.17 nM.

For the molecule `Cc1ccccc1S(=O)(=O)C1(c2cc(N3CCOC[C@@H]3C)nc(-c3ccc(NC(=O)NCCF)cc3)n2)CC1` [Example 54c, 3-(2-fluoroethyl)-1-[4-[4-[(3S)-3-methylmorpholin-4-yl]-6-[1-(2-methylphenyl)sulfonylcyclo-propyl]pyrimidin-2-yl]phenyl]urea], the IC50 was 4.53 nM.

Take `Cc1ccccc1S(=O)(=O)C1(c2cc(N3CCOC[C@@H]3C)nc(-c3ccc(NC(=O)NCC(F)F)cc3)n2)CC1` [Example 54d, 3-(2,2-difluoroethyl)-1-[4-[4-[(3S)-3-methylmorpholin-4-yl]-6-[1-(2-methylphenyl)sulfonylcyclo-propyl]pyrimidin-2-yl]phenyl]urea]: the IC50 came out at 8.82 nM. To `CCNC(=O)Nc1ccc(-c2nc(N3CCOC[C@@H]3C)cc(C3(S(=O)(=O)c4ccccc4C)CC3)n2)cc1` [Example 54e, 1-ethyl-3-[4-[4-[(3S)-3-methylmorpholin-4-yl]-6-[1-(2-methylphenyl)sulfonylcyclo-propyl]pyrimidin-2-yl]phenyl]urea] belongs 7.62 nM. To `Cc1ccccc1S(=O)(=O)C1(c2cc(N3CCOC[C@@H]3C)nc(-c3ccc(NC(=O)Nc4cnn(C)c4)cc3)n2)CC1` [Example 54f, 1-[4-[4-[(3S)-3-methylmorpholin-4-yl]-6-[1-(2-methylphenyl)sulfonylcyclo-propyl]pyrimidin-2-yl]phenyl]-3-(1-methylpyrazol-4-yl)urea] belongs 10.7 nM; to `CNC(=O)Nc1ccc(-c2nc(N3CCOC[C@@H]3C)cc(C3(S(=O)(=O)c4cn(C)nc4C)CC3)n2)cc1` [Example 55, 1-[4-[4-[1-(1,3-Dimethylpyrazol-4-yl)sulfonylcyclopropyl]-6-[(3S)-3-methylmorpholin-4-yl]pyrimidin-2-yl]phenyl]-3-methylurea], 2.96 nM.

For `Cc1nn(C)cc1S(=O)(=O)C1(c2cc(N3CCOC[C@@H]3C)nc(-c3ccc(NC(=O)NC4CC4)cc3)n2)CC1` [Example 55a, 3-cyclopropyl-1-[4-[4-[1-(1,3-dimethylpyrazol-4-yl)sulfonylcyclopropyl]-6-[(3S)-3-methylmorpholin-4-yl]pyrimidin-2-yl]phenyl]urea], the IC50 amounted to 21.3 nM.

Take `Cc1nn(C)cc1S(=O)(=O)C1(c2cc(N3CCOC[C@@H]3C)nc(-c3ccc(NC(=O)NCCO)cc3)n2)CC1` [Example 55b, 1-[4-[4-[1-(1,3-dimethylpyrazol-4-yl)sulfonylcyclopropyl]-6-[(3S)-3-methylmorpholin-4-yl]pyrimidin-2-yl]phenyl]-3-(2-hydroxyethyl)urea]: the IC50 was found to be 16.1 nM.

With `Cc1nn(C)cc1S(=O)(=O)C1(c2cc(N3CCOC[C@@H]3C)nc(-c3ccc(NC(=O)NCCF)cc3)n2)CC1` [Example 55c, 1-[4-[4-[1-(1,3-dimethylpyrazol-4-yl)sulfonylcyclopropyl]-6-[(3S)-3-methylmorpholin-4-yl]pyrimidin-2-yl]phenyl]-3-(2-fluoroethyl)urea], the IC50 amounted to 18.9 nM. To `Cc1nn(C)cc1S(=O)(=O)C1(c2cc(N3CCOC[C@@H]3C)nc(-c3ccc(NC(=O)NCC(F)F)cc3)n2)CC1` [Example 55d, 3-(2,2-difluoroethyl)-1-[4-[4-[1-(1,3-dimethylpyrazol-4-yl)sulfonylcyclopropyl]-6-[(3S)-3-methylmorpholin-4-yl]pyrimidin-2-yl]phenyl]urea] belongs 35.1 nM.
